Test results reported in patent US12544395B2, “Combination compositions comprising a beta-lactamase inhibitor and uses thereof” (priority 2018, dated 2026).

Key:
Assay type in all cases: cell-based
K. pneumoniae 3151 = test: Broth microdilution MIC (strain enzymes: SHV-12, TEM-1)
K. pneumoniae KPN 508 = test: Broth microdilution MIC (strain enzymes: SHV-7, TEM-1)
K. pneumoniae KP 4 = test: Broth microdilution MIC (strain enzymes: SHV-2a, SHV-5, TEM-1)
K. oxytoca 169219 = test: Broth microdilution MIC (strain enzymes: TEM-1, CTXM-15)
E. coli ESBL 2 = test: Broth microdilution MIC (strain enzymes: TEM-1)
K. oxytoca 176877 = test: Broth microdilution MIC (strain enzymes: SHV-105)

`CCC(=O)N[C@H]1Cc2cccc(C(=O)O)c2OB1O` [Compound 2, (R)-2-hydroxy-3-propionamido-3,4-dihydro-2H-benzo[e][1,2]oxaborinine-8-carboxylic acid] was tested, and the “MIC of cefalexin (LEX)” value (K. pneumoniae 3151; with inhibitor at 1 μg/mL) was 2 µg/mL, the “MIC of cefdinir (CDR)” value (K. pneumoniae 3151; with inhibitor at 1 μg/mL) was 2 µg/mL and the “MIC of cefixime (CFM)” value (K. pneumoniae 3151; with inhibitor at 1 μg/mL) was 16 µg/mL. The “MIC of ceftibuten (CTB)” value (K. pneumoniae 3151; with inhibitor at 1 μg/mL) was 1 µg/mL, the “MIC of cefalexin (LEX)” value (K. pneumoniae 3151; with inhibitor at 2 μg/mL) was 1 µg/mL and the “MIC of cefdinir (CDR)” value (K. pneumoniae 3151; with inhibitor at 2 μg/mL) was 1 µg/mL. For the same compound, the “MIC of cefixime (CFM)” value (K. pneumoniae 3151; with inhibitor at 2 μg/mL) was 8 µg/mL, the “MIC of ceftibuten (CTB)” value (K. pneumoniae 3151; with inhibitor at 2 μg/mL) was 0.25 µg/mL and the “MIC of cefalexin (LEX)” value (K. pneumoniae 3151; with inhibitor at 4 μg/mL) was 0.5 µg/mL. The “MIC of cefdinir (CDR)” value (K. pneumoniae 3151; with inhibitor at 4 μg/mL) was 0.5 µg/mL, the “MIC of cefixime (CFM)” value (K. pneumoniae 3151; with inhibitor at 4 μg/mL) was 2 µg/mL and the “MIC of ceftibuten (CTB)” value (K. pneumoniae 3151; with inhibitor at 4 μg/mL) was 0.25 µg/mL. For the same compound, the “MIC of cefalexin (LEX)” value (K. pneumoniae KPN 508; with inhibitor at 1 μg/mL) was 0.5 µg/mL, the “MIC of cefdinir (CDR)” value (K. pneumoniae KPN 508; with inhibitor at 1 μg/mL) was 0.5 µg/mL and the “MIC of cefixime (CFM)” value (K. pneumoniae KPN 508; with inhibitor at 1 μg/mL) was 4 µg/mL. For the same compound, the “MIC of ceftibuten (CTB)” value (K. pneumoniae KPN 508; with inhibitor at 1 μg/mL) was 0.125 µg/mL, the “MIC of cefalexin (LEX)” value (K. pneumoniae KPN 508; with inhibitor at 2 μg/mL) was 0.25 µg/mL and the “MIC of cefdinir (CDR)” value (K. pneumoniae KPN 508; with inhibitor at 2 μg/mL) was 0.25 µg/mL. The “MIC of cefixime (CFM)” value (K. pneumoniae KPN 508; with inhibitor at 2 μg/mL) was 1 µg/mL, the “MIC of ceftibuten (CTB)” value (K. pneumoniae KPN 508; with inhibitor at 2 μg/mL) was 0.125 µg/mL and the “MIC of cefalexin (LEX)” value (K. pneumoniae KPN 508; with inhibitor at 4 μg/mL) was 0.5 µg/mL. The “MIC of cefdinir (CDR)” value (K. pneumoniae KPN 508; with inhibitor at 4 μg/mL) was 0.5 µg/mL, the “MIC of cefixime (CFM)” value (K. pneumoniae KPN 508; with inhibitor at 4 μg/mL) was 0.5 µg/mL and the “MIC of ceftibuten (CTB)” value (K. pneumoniae KPN 508; with inhibitor at 4 μg/mL) was 0.06 µg/mL. The “MIC of cefalexin (LEX)” value (K. pneumoniae KP 4; with inhibitor at 1 μg/mL) was 0.5 µg/mL, the “MIC of cefdinir (CDR)” value (K. pneumoniae KP 4; with inhibitor at 1 μg/mL) was 0.5 µg/mL and the “MIC of cefixime (CFM)” value (K. pneumoniae KP 4; with inhibitor at 1 μg/mL) was 2 µg/mL. For the same compound, the “MIC of ceftibuten (CTB)” value (K. pneumoniae KP 4; with inhibitor at 1 μg/mL) was 0.25 µg/mL, the “MIC of cefalexin (LEX)” value (K. pneumoniae KP 4; with inhibitor at 2 μg/mL) was 0.5 µg/mL and the “MIC of cefdinir (CDR)” value (K. pneumoniae KP 4; with inhibitor at 2 μg/mL) was 0.5 µg/mL. The “MIC of cefixime (CFM)” value (K. pneumoniae KP 4; with inhibitor at 2 μg/mL) was 0.5 µg/mL, the “MIC of ceftibuten (CTB)” value (K. pneumoniae KP 4; with inhibitor at 2 μg/mL) was 0.125 µg/mL and the “MIC of cefalexin (LEX)” value (K. pneumoniae KP 4; with inhibitor at 4 μg/mL) was 0.125 µg/mL. For the same compound, the “MIC of cefdinir (CDR)” value (K. pneumoniae KP 4; with inhibitor at 4 μg/mL) was 0.125 µg/mL, the “MIC of cefixime (CFM)” value (K. pneumoniae KP 4; with inhibitor at 4 μg/mL) was 0.25 µg/mL and the “MIC of ceftibuten (CTB)” value (K. pneumoniae KP 4; with inhibitor at 4 μg/mL) was 0.125 µg/mL. For the same compound, the “MIC of cefalexin (LEX)” value (K. oxytoca 169219; with inhibitor at 1 μg/mL) was 1 µg/mL, the “MIC of cefdinir (CDR)” value (K. oxytoca 169219; with inhibitor at 1 μg/mL) was 1 µg/mL and the “MIC of cefixime (CFM)” value (K. oxytoca 169219; with inhibitor at 1 μg/mL) was 0.25 µg/mL. The “MIC of ceftibuten (CTB)” value (K. oxytoca 169219; with inhibitor at 1 μg/mL) was 0.03 µg/mL, the “MIC of cefalexin (LEX)” value (K. oxytoca 169219; with inhibitor at 2 μg/mL) was 0.5 µg/mL and the “MIC of cefdinir (CDR)” value (K. oxytoca 169219; with inhibitor at 2 μg/mL) was 0.5 µg/mL. For the same compound, the “MIC of cefixime (CFM)” value (K. oxytoca 169219; with inhibitor at 2 μg/mL) was 0.125 µg/mL, the “MIC of ceftibuten (CTB)” value (K. oxytoca 169219; with inhibitor at 2 μg/mL) was 0.0149 µg/mL and the “MIC of cefalexin (LEX)” value (K. oxytoca 169219; with inhibitor at 4 μg/mL) was 0.5 µg/mL. For the same compound, the “MIC of cefdinir (CDR)” value (K. oxytoca 169219; with inhibitor at 4 μg/mL) was 0.5 µg/mL, the “MIC of cefixime (CFM)” value (K. oxytoca 169219; with inhibitor at 4 μg/mL) was 0.125 µg/mL and the “MIC of ceftibuten (CTB)” value (K. oxytoca 169219; with inhibitor at 4 μg/mL) was 0.0149 µg/mL. For the same compound, the “MIC of cefalexin (LEX)” value (E. coli ESBL 2; with inhibitor at 1 μg/mL) was 0.5 µg/mL, the “MIC of cefdinir (CDR)” value (E. coli ESBL 2; with inhibitor at 1 μg/mL) was 0.5 µg/mL and the “MIC of cefixime (CFM)” value (E. coli ESBL 2; with inhibitor at 1 μg/mL) was 0.25 µg/mL. The “MIC of ceftibuten (CTB)” value (E. coli ESBL 2; with inhibitor at 1 μg/mL) was 0.125 µg/mL, the “MIC of cefalexin (LEX)” value (E. coli ESBL 2; with inhibitor at 2 μg/mL) was 0.5 µg/mL and the “MIC of cefdinir (CDR)” value (E. coli ESBL 2; with inhibitor at 2 μg/mL) was 0.5 µg/mL. The “MIC of cefixime (CFM)” value (E. coli ESBL 2; with inhibitor at 2 μg/mL) was 0.25 µg/mL, the “MIC of ceftibuten (CTB)” value (E. coli ESBL 2; with inhibitor at 2 μg/mL) was 0.125 µg/mL and the “MIC of cefalexin (LEX)” value (E. coli ESBL 2; with inhibitor at 4 μg/mL) was 0.25 µg/mL. The “MIC of cefdinir (CDR)” value (E. coli ESBL 2; with inhibitor at 4 μg/mL) was 0.25 µg/mL, the “MIC of cefixime (CFM)” value (E. coli ESBL 2; with inhibitor at 4 μg/mL) was 0.125 µg/mL and the “MIC of ceftibuten (CTB)” value (E. coli ESBL 2; with inhibitor at 4 μg/mL) was 0.125 µg/mL. The “MIC of cefalexin (LEX)” value (K. oxytoca 176877; with inhibitor at 1 μg/mL) was 2 µg/mL, the “MIC of cefdinir (CDR)” value (K. oxytoca 176877; with inhibitor at 1 μg/mL) was 2 µg/mL and the “MIC of cefixime (CFM)” value (K. oxytoca 176877; with inhibitor at 1 μg/mL) was 1 µg/mL. For the same compound, the “MIC of ceftibuten (CTB)” value (K. oxytoca 176877; with inhibitor at 1 μg/mL) was 0.5 µg/mL, the “MIC of cefalexin (LEX)” value (K. oxytoca 176877; with inhibitor at 2 μg/mL) was 2 µg/mL and the “MIC of cefdinir (CDR)” value (K. oxytoca 176877; with inhibitor at 2 μg/mL) was 2 µg/mL. For the same compound, the “MIC of cefixime (CFM)” value (K. oxytoca 176877; with inhibitor at 2 μg/mL) was 0.5 µg/mL.
